Experimental data reported in ChEMBL document CHEMBL3352326, “Synthesis of 2,3-di- and 2,2,3-trisubstituted-3-methoxycarbonyl-γ-butyrolactones as potent antitumor agents” (Eur J Med Chem, 2015).

Columns and labels:
Assay type in all cases: functional
KB = assay: Growth inhibition of human KB cells at 10 uM after 72 hrs by MTS assay; details: read-out: GI
MCF7 = assay: Growth inhibition of human MCF7 cells at 10 uM after 72 hrs by MTS assay; details: MCF7, 72 h, read-out: GI
[1] = Growth inhibition of human HCT116 cells at 10 uM after 72 hrs by MTS assay; details: HCT-116, 72 h, read-out: GI
[2] = Growth inhibition of human HL60 cells at 10 uM after 72 hrs by MTS assay; details: HL-60, 72 h, read-out: GI

SMILES	inhibition of growth at 10 µM (KB) [%]	inhibition of growth at 10 µM (MCF7) [%]	inhibition of growth at 10 µM [1] [%]	inhibition of growth at 10 µM [2] [%]
COC(=O)C1(Cc2ccccc2)CC(=O)OC1(C)C (stereo not given)	0	7	15	9
COC(=O)C1(Cc2cccc(OC)c2)CC(=O)OC1c1cc(OC)c(OC)c(OC)c1 (stereo not given)	0	13	20	10
COC(=O)C1(Cc2ccccc2OC)CC(=O)OC1c1ccccc1 (stereo not given)	7	18	23	42
CCC1(c2ccccc2)OC(=O)CC1(Cc1ccccc1)C(=O)OC (stereo not given)	22	12	25	17
COC(=O)C1(Cc2ccccc2)CC(=O)OC1c1cc(OC)c(OC)c(OC)c1 (stereo not given)	2	17	7	27
COC(=O)C1(Cc2ccccc2)CC(=O)OC12CCCCC2 (stereo not given)	7	1	0	4
COC(=O)C1(Cc2ccc(OC)cc2)CC(=O)OC1(c1ccccc1)C(F)(F)F (stereo not given)	56	8	20	64
COC(=O)C1(Cc2ccc(OC)cc2)CC(=O)OC1c1cc(OC)c(OC)c(OC)c1 (stereo not given)	16	27	24	32
COC(=O)C1(Cc2cccc(C(F)(F)F)c2)CC(=O)OC1c1ccccc1 (stereo not given)	39	11	14	34
COC(=O)C1(Cc2ccc(OC)cc2)CC(=O)OC1c1ccco1 (stereo not given)	32	0	0	29
COC(=O)c1ccc(CC2(C(=O)OC)CC(=O)OC2c2ccccc2)cc1 (stereo not given)	12	0	0	19
COC(=O)C1(Cc2ccc(OC)cc2)CC(=O)OC1(C)c1cc(OC)c(OC)c(OC)c1 (stereo not given)	0	7	8	24
COC(=O)C1(Cc2ccccc2)CC(=O)OC1(C)c1cccc(C(F)(F)F)c1 (stereo not given)	34	14	14	20
CCCCCCC1OC(=O)CC1(Cc1ccc(OC)cc1)C(=O)OC (stereo not given)	13	28	12	8
COC(=O)C1(Cc2ccc(C(F)(F)F)cc2)CC(=O)OC1c1ccccc1 (stereo not given)	4	0	4	4
COC(=O)C1(Cc2ccc(OC)cc2)CC(=O)OC1c1ccccc1 (stereo not given)	19	0	4	15
COC(=O)[C@@]1(Cc2ccc(OC)cc2)CC(=O)O[C@]1(C)c1ccccc1	98	59	56	68
COC(=O)C1(Cc2ccccc2)CC(=O)OC1(C)c1ccccc1 (stereo not given)	6	13	9	22

SMILES	inhibition of growth at 10 µM (KB) [%]	inhibition of growth at 10 µM (MCF7) [%]	inhibition of growth at 10 µM [1] [%]	inhibition of growth at 10 µM [2] [%]
COC(=O)C1(Cc2ccc(OC)cc2)CC(=O)OC1c1cccc(C(F)(F)F)c1 (stereo not given)	25	15	10	14
COC(=O)C1(Cc2ccccc2OC)CC(=O)OC1(C)c1ccccc1 (stereo not given)	9	10	13	34
COC(=O)C1(Cc2ccccc2)CC(=O)OC1(C)c1cc(OC)c(OC)c(OC)c1 (stereo not given)	0	2	0	7
COC(=O)C1(Cc2cccc(C(F)(F)F)c2)CC(=O)OC1(C)c1ccccc1 (stereo not given)	21	20	22	21
COC(=O)C1(Cc2ccccc2)CC(=O)OC1c1ccccc1 (stereo not given)	18	0	0	22
COC(=O)C1(Cc2cccc(OC)c2)CC(=O)OC1(C)c1ccccc1 (stereo not given)	5	16	14	30
COC(=O)C1(Cc2ccc(C(F)(F)F)cc2)CC(=O)OC1(C)c1ccccc1 (stereo not given)	15	19	25	28
COC(=O)C1(Cc2ccccc2OC)CC(=O)OC1c1cc(OC)c(OC)c(OC)c1 (stereo not given)	6	12	19	22
COC(=O)C1(Cc2ccc(OC)cc2)CC(=O)OC1c1ccccc1C(F)(F)F (stereo not given)	31	0	0	23
COC(=O)C1(Cc2ccccc2C(F)(F)F)CC(=O)OC1(C)c1ccccc1 (stereo not given)	0	6	18	0
COC(=O)C1(Cc2ccc3c(c2)OCO3)CC(=O)OC1c1ccccc1 (stereo not given)	0	11	18	18
COC(=O)[C@]1(Cc2ccc(OC)cc2)CC(=O)O[C@]1(C)c1ccccc1	15	0	0	24
COC(=O)C1(Cc2cc(OC)c(OC)c(OC)c2)CC(=O)OC1c1ccccc1 (stereo not given)	0	1	16	7
CCC1(c2ccccc2)OC(=O)CC1(Cc1ccc(OC)cc1)C(=O)OC (stereo not given)	11	21	28	30
COC(=O)C1(Cc2cc(OC)c(OC)c(OC)c2)CC(=O)OC1c1cc(OC)c(OC)c(OC)c1 (stereo not given)	0	3	13	0
COC(=O)C1(Cc2ccc(OC)cc2)CC(=O)OC1c1ccc(C(F)(F)F)cc1 (stereo not given)	0	4	0	2
COC(=O)c1ccc(CC2(C(=O)OC)CC(=O)OC2(C)c2ccccc2)cc1 (stereo not given)	22	35	44	43
